Assay results reported in paper PMC6164231, “Evaluation of Chemical Strategies for Improving the Stability and Oral Toxicity of Insecticidal Peptides” (Biomedicines, 2018).

How the values were obtained:
[1] = system: sheep blowflies (Lucilia cuprina); assay: Blowfly toxicity assay, injection; assay type: in vivo; conditions: injected into ventro-lateral thoracic region, lethality after 24 h; three tests, n = 10 flies per dose
Method: Injection assays using sheep blowflies (Lucilia cuprina) were performed as described. Briefly, peptides were dissolved in insect-saline and injected into the ventro-lateral thoracic region of blowflies (mass 16.5–27.0 mg). Thereafter, flies were individually housed in 2 mL tubes and lethality determined after 24 h.
(§1) Tests for oral toxicity in blowflies were performed as described. In short, peptides were dissolved in 5% sucrose and 3 μL of this solution was applied to the inside of a 2 mL tube containing a single fly (mass 16.8–25.3 mg). Flies were kept in the tube overnight without additional food or water until the sucrose solution was consumed. Thereafter, flies were transferred into 250 mL plastic containers and provided with a sugar cube and wet cotton wool. Each box housed 10 flies that received the same treatment. Oral toxicity was determined three days after the oral application. For both injection and oral toxicity assays, three tests were carried for each peptide, and for each test several doses of peptide (n = 10 flies per dose) were used along with appropriate controls (i.e., insect saline or 5% sucrose solution; n = 20–40). LD50 values were calculated as described previously.

[2] = Susceptibility to scrambling of Hv1a and diselenide analogs (buffer with or without GSH); assay type: physicochemical; conditions: for susceptibility to scrambling in the presence of GSH: 1 equivalent GSH; for Correctly Folded Toxin, In Buffer, pH 7.2: 45 μL of 250 μM peptide + 45 μL 0.1 M phosphate buffer pH 7.2, 24 h; for Correctly Folded Toxin, In Buffer, pH 7.2 / Correctly Folded Toxin, With 1 Equivalent GSH, pH 7.2: quenched with 1% TFA, analytical RP-HPLC; for Correctly Folded Toxin, With 1 Equivalent GSH, pH 7.2: 45 μL of 250 μM peptide + 45 μL 0.1 M phosphate buffer pH 7.2 containing 250 μM GSH, 24 h
Method: Peptide (45 μL of a 250 μM solution) was combined with either 45 μL of buffer (0.1 M phosphate buffer, pH 7.2) or 45 μL of buffer containing 250 μM GSH. After 24 h, the reaction was quenched with 1% TFA and the solution analysed using analytical RP-HPLC.

[3] = Midgut permeation assay (Ussing chamber); assay type: in vitro ADME, Manduca sexta; conditions: 10 µM in luminal fluid, separate occasion / different batch of M. sexta, comparison with 1,4-SeSe-Hv1a, 1 h at 30 °C, HPLC/ELISA/MALDI-TOF MS, mean ± S.E.M, n = 11–12 tissues
Method: Flat-sheet preparations of the anterior midgut of Manduca sexta were mounted in Ussing-type chambers as previously described [39]. The lumen to hemolymph flux was determined by applying various concentrations of peptide (0.1, 1, and 10 μM) to the luminal side of the tissue and taking aliquots of saline from the hemolymph side after 1 h incubation at 30 °C (n = 9–19 tissues per peptide and dose). […] To check for damage to gut tissues that would allow leakage of peptides through the tissues, 1% amaranth, which is not absorbed across gut epithelia, was added to the luminal side of the tissue. Samples were analysed using a combination of liquid chromatography, enzyme-linked immunosorbent assay (ELISA), and matrix-assisted laser desorption/ionisation time-of-flight mass spectrometry (MALDI-TOF MS) to quantify the amount of intact peptide present on the hemolymph side of the tissue [39].
Chromatography was performed using a Beckman System Gold chromatographic system (Beckman Coulter Ltd., High Wycombe, UK) consisting of a dual pump programmable solvent module 126 and System Gold UV detector module 166. […] Samples were eluted using a linear gradient of 10–60% ACN/0.1% TFA over 50 min at a flow rate of 0.2 mL/min, and elution monitored at 214 nm. […] Absorbance was converted to peptide concentration using standard curves. […]

[4] = system: sheep blowflies (Lucilia cuprina); assay: Blowfly toxicity assay, oral; assay type: in vivo; conditions: feeding to sheep blowflies; full dose-response curves not determined (Figure 4)
Method: as §1

[5] = system: Sarcophaga flesh flies; conditions: cited from earlier work
[6] = 0.1 M phosphate buffer pH 7.2, 24 h, RP-HPLC

Molecule: [C4U,C18U]-Hv1a [1,4-SeSe-Hv1a]
- LD50, injection into sheep blowflies [1]: 407 ± 22 pmol/g
- susceptibility to scrambling in the presence of GSH [2, 6]: only weakly prone to scrambling
- Correctly Folded Toxin, In Buffer, pH 7.2 [2]: 100%
- Correctly Folded Toxin, With 1 Equivalent GSH, pH 7.2 [2]: 85%
- Lumen to Hemolymph Flux [3]: 227 ± 14 pmol/cm^2/h

Molecule: [C11U,C22U]-Hv1a [2,5-SeSe-Hv1a]
- LD50, injection into sheep blowflies [1]: 455 ± 35 pmol/g
- susceptibility to scrambling in the presence of GSH [2, 6]: only weakly prone to scrambling
- Correctly Folded Toxin, In Buffer, pH 7.2 [2]: 100%
- Correctly Folded Toxin, With 1 Equivalent GSH, pH 7.2 [2]: 82%

Molecule: [C17U,C36U]-Hv1a [3,6-SeSe-Hv1a]
- LD50, injection into sheep blowflies [1]: 446 ± 12 pmol/g
- oral activity compared with native Hv1a [4]: significantly lower than native Hv1a
- stability in neutral media [2, 6]: marginal instability
- susceptibility to scrambling in the presence of GSH [2, 6]: more susceptible to scrambling
- Correctly Folded Toxin, In Buffer, pH 7.2 [2]: 95%
- Correctly Folded Toxin, With 1 Equivalent GSH, pH 7.2 [2]: 60%

B1: AaIT: scorpion toxin AaIT (peptide, UniProt P01497 19-88, looked up)
Beta-insect excitatory toxin 1: KKNGYAVDSSGKAPECLLSNYCNNECTKVHYADKGYCCLLSCYCFGLNDDKKVLEISDTRKSYCDTTIIN
- ratio oral vs. injection LD50 [5]: 714
